Laboratory results: patent US10329249B1, “Sulindac derivatives” (KING SAUD UNIVERSITY, priority 2018, dated 2019)

Key:
[1] = DPPH free radical scavenging (antioxidant activity); settings: 100 μg/mL compound in 3 mL 0.004% DPPH, 520 nm after 30 min; mean of three replicates ±SD
Method: The antioxidant activity was measured based on the scavenging activity of the stable DPPH free radical. 100 μg/mL of the twenty-five sulindac derivative compounds were added to 3 mL 0.004% DPPH solution. Methanol was added to 3 mL 0.004% DPPH solution for the control sample. Absorbance was determined at 520 nm after 30 min. Butylated hydroxytoluene (BHT) was used as a reference drug. The percent inhibition was calculated by the equation:
[formula] where At is the absorbance of the compound and A0 is the absorbance of the control.

## Cc1cc(C(C)(C)C)c(O)c(C(C)(C)C)c1 [BHT, Butylated hydroxytoluene, reference compound]
[1]
  Scavenging Effect: 90.6 ± 3.83%

## CC1=C(CC(=O)N/N=C\c2ccccc2[N+](=O)[O-])c2cc(F)ccc2/C1=C\c1ccc([S+](C)[O-])cc1 (stereo not drawn) [Compound 1, N′-(2-nitrobenzylidene)-2-((1Z)-1-(4-(methylsulfinyl)benzylidene)-5-fluoro-2-methyl-1H-inden-3-yl)acetohydrazide]
[1]
  Scavenging Effect: 18.53 ± 4.86%
other
  melting point: 148 to 150 °C

## CC1=C(CC(=O)N/N=C\c2ccc([N+](=O)[O-])cc2)c2cc(F)ccc2/C1=C\c1ccc([S+](C)[O-])cc1 (stereo not drawn) [Compound 2, N′-(4-nitrobenzylidene)-2-((1Z)-1-(4-(methylsulfinyl)benzylidene)-5-fluoro-2-methyl-1H-inden-3-yl)acetohydrazide]
[1]
  Scavenging Effect: 19.26 ± 5.32%
other
  melting point: 220 to 222 °C

## CC1=C(CC(=O)N/N=C\c2ccccc2)c2cc(F)ccc2/C1=C\c1ccc([S+](C)[O-])cc1 (stereo not drawn) [Compound 3]
[1]
  Scavenging Effect: 67.40 ± 9.25%
other
  melting point: 138 to 140 °C

## CC1=C(CC(=O)N/N=C\c2ccc(Cl)cc2)c2cc(F)ccc2/C1=C\c1ccc([S+](C)[O-])cc1 (stereo not drawn) [Compound 4, N′-(4-chlorobenzylidene)-2-((1Z)-1-(4-(methylsulfinyl)benzylidene)-5-fluoro-2-methyl-1H-inden-3-yl)acetohydrazide]
[1]
  Scavenging Effect: 39.86 ± 10.80%
other
  melting point: 228 to 230 °C

## CC1=C(CC(=O)N/N=C\c2cccc(O)c2)c2cc(F)ccc2/C1=C\c1ccc([S+](C)[O-])cc1 (stereo not drawn) [Compound 5]
[1]
  Scavenging Effect: 42.20 ± 13.20%

## COc1cccc(/C=N\NC(=O)CC2=C(C)/C(=C/c3ccc([S+](C)[O-])cc3)c3ccc(F)cc32)c1 (stereo not drawn) [Compound 6]
[1]
  Scavenging Effect: 71.03 ± 5.31%

## CC1=C(CC(=O)N/N=C\c2cccc([N+](=O)[O-])c2)c2cc(F)ccc2/C1=C\c1ccc([S+](C)[O-])cc1 (stereo not drawn) [Compound 7]
[1]
  Scavenging Effect: 49.36 ± 5.57%
other
  melting point: 165 to 167 °C

## COc1cc(OC)c(OC)cc1/C=N\NC(=O)CC1=C(C)/C(=C/c2ccc([S+](C)[O-])cc2)c2ccc(F)cc21 (stereo not drawn) [Compound 9]
[1]
  Scavenging Effect: 78.97 ± 9.36%
other
  melting point: 233 to 235 °C

## COc1cc(/C=N\NC(=O)CC2=C(C)/C(=C/c3ccc([S+](C)[O-])cc3)c3ccc(F)cc32)cc(OC)c1OC (stereo not drawn) [Compound 10, N′-(3,4,5-trimethoxybenzylidene)-2-((1Z)-1-(4-(methylsulfinyl)benzylidene)-5-fluoro-2-methyl-1H-inden-3-yl)acetohydrazide]
[1]
  Scavenging Effect: 42.33 ± 18.38%
other
  melting point: 165 to 167 °C

## CC1=C(CC(=O)N/N=C\c2ccc(O)cc2)c2cc(F)ccc2/C1=C\c1ccc([S+](C)[O-])cc1 (stereo not drawn) [Compound 11, N′-(4-hydroxybenzylidene)-2-((1Z)-1-(4-(methylsulfinyl)benzylidene)-5-fluoro-2-methyl-1H-inden-3-yl)acetohydrazide]
[1]
  Scavenging Effect: 45.06 ± 22.57%

## COc1ccccc1/C=N\NC(=O)CC1=C(C)/C(=C/c2ccc([S+](C)[O-])cc2)c2ccc(F)cc21 (stereo not drawn) [Compound 12, N′-(2-methoxybenzylidene)-2-((1Z)-1-(4-(methylsulfinyl)benzylidene)-5-fluoro-2-methyl-1H-inden-3-yl) acetohydrazide]
[1]
  Scavenging Effect: 39.73 ± 15.65%

## COc1ccc(/C=N\NC(=O)CC2=C(C)/C(=C/c3ccc([S+](C)[O-])cc3)c3ccc(F)cc32)c(OC)c1 (stereo not drawn) [Compound 13, N′-(2,4-dimethoxybenzylidene)-2-((1Z)-1-(4-(methylsulfinyl)benzylidene)-5-fluoro-2-methyl-1H-inden-3-yl)acetohydrazide]
[1]
  Scavenging Effect: 23.07 ± 6.95%
other
  melting point: 185 to 187 °C

## COc1cccc(/C=N\NC(=O)CC2=C(C)/C(=C/c3ccc([S+](C)[O-])cc3)c3ccc(F)cc32)c1OC (stereo not drawn) [Compound 14, N′-(2,3-dimethoxybenzylidene)-2-((1Z)-1-(4-(methylsulfinyl)benzylidene)-5-fluoro-2-methyl-1H-inden-3-yl)acetohydrazide]
[1]
  Scavenging Effect: 62.93 ± 6.72%
other
  melting point: 203 to 205 °C

## COc1ccc(/C=N\NC(=O)CC2=C(C)/C(=C/c3ccc([S+](C)[O-])cc3)c3ccc(F)cc32)cc1OC (stereo not drawn) [Compound 15, N′-(3,4-dimethoxybenzylidene)-2-((1Z)-1-(4-(methylsulfinyl)benzylidene)-5-fluoro-2-methyl-1H-inden-3-yl)acetohydrazide]
[1]
  Scavenging Effect: 40.60 ± 14.40%
other
  melting point: 230 to 232 °C

## COc1cc(OC)c(/C=N\NC(=O)CC2=C(C)/C(=C/c3ccc([S+](C)[O-])cc3)c3ccc(F)cc32)c(OC)c1 (stereo not drawn) [Compound 16, N′-(2,4,6-timethoxybenzylidene)-2-((1Z)-1-(4-(methylsulfinyl)benzylidene)-5-fluoro-2-methyl-1H-inden-3-yl)acetohydrazide]
[1]
  Scavenging Effect: 30.80 ± 2.50%
other
  melting point: 193 to 195 °C

## COc1ccc(/C=N\NC(=O)CC2=C(C)/C(=C/c3ccc([S+](C)[O-])cc3)c3ccc(F)cc32)c(OC)c1OC (stereo not drawn) [Compound 17, N′-(2,3,4-timethoxybenzylidene)-2-((1Z)-1-(4-(methylsulfinyl)benzylidene)-5-fluoro-2-methyl-1H-inden-3-yl)acetohydrazide]
[1]
  Scavenging Effect: 63.56 ± 0.47%
other
  melting point: 185 to 187 °C

## CCOc1ccc(/C=N\NC(=O)CC2=C(C)/C(=C/c3ccc([S+](C)[O-])cc3)c3ccc(F)cc32)cc1OC (stereo not drawn) [Compound 18, N′-(3-methoxy-4-ethoxybenzylidene)-2-((1Z)-1-(4-(methylsulfinyl)benzylidene)-5-fluoro-2-methyl-1H-inden-3-yl)acetohydrazide]
other
  melting point: 158 to 160 °C

## COc1cc(/C=N\NC(=O)CC2=C(C)/C(=C/c3ccc([S+](C)[O-])cc3)c3ccc(F)cc32)cc(OC)c1O (stereo not drawn) [Compound 19, N′-(3,5-dimethoxy-4-hydroxybenzylidene)-2-((1Z)-1-(4-(methylsulfinyl)benzylidene)-5-fluoro-2-methyl-1H-inden-3-yl)acetohydrazide]
other
  melting point: 218 to 220 °C

## CCOc1cc(/C=N\NC(=O)CC2=C(C)/C(=C/c3ccc([S+](C)[O-])cc3)c3ccc(F)cc32)ccc1O (stereo not drawn) [Compound 20, N′-(3-ethoxy-4-hydroxybenzylidene)-2-((1Z)-1-(4-(methylsulfinyl)benzylidene)-5-fluoro-2-methyl-1H-inden-3-yl)acetohydrazide]
[1]
  Scavenging Effect: 35.50 ± 9.05%
other
  melting point: 193 to 195 °C

## CC1=C(CC(=O)N/N=C\c2cc(O)ccc2O)c2cc(F)ccc2/C1=C\c1ccc([S+](C)[O-])cc1 (stereo not drawn) [Compound 21, N′-(2,5-dihydroxybenzylidene)-2-((1Z)-1-(4-(methylsulfinyl)benzylidene)-5-fluoro-2-methyl-1H-inden-3-yl)acetohydrazide]
[1]
  Scavenging Effect: 38.10 ± 10.92%
other
  melting point: 180 to 182 °C

## COc1ccc(/C=N\NC(=O)CC2=C(C)/C(=C/c3ccc([S+](C)[O-])cc3)c3ccc(F)cc32)cc1O (stereo not drawn) [Compound 22, N′-(3-hydroxy-4-methoxybenzylidene)-2-((1Z)-1-(4-(methylsulfinyl)benzylidene)-5-fluoro-2-methyl-1H-inden-3-yl)acetohydrazide]
[1]
  Scavenging Effect: 51.40 ± 16.66%
other
  melting point: 208 to 210 °C

## CC1=C(CC(=O)N/N=C\c2cccc(O)c2O)c2cc(F)ccc2/C1=C\c1ccc([S+](C)[O-])cc1 (stereo not drawn) [Compound 23, N′-(2,3-dihydroxybenzylidene)-2-((1Z)-1-(4-(methylsulfinyl)benzylidene)-5-fluoro-2-methyl-1H-inden-3-yl)acetohydrazide]
[1]
  Scavenging Effect: 33.10 ± 8.41%

## COc1cccc(/C=N\NC(=O)CC2=C(C)/C(=C/c3ccc([S+](C)[O-])cc3)c3ccc(F)cc32)c1O (stereo not drawn) [Compound 24]
[1]
  Scavenging Effect: 27.66 ± 2.12%
other
  melting point: 210 to 212 °C

## CC1=C(CC(=O)N/N=C\c2ccc(O)c(O)c2O)c2cc(F)ccc2/C1=C\c1ccc([S+](C)[O-])cc1 (stereo not drawn) [Compound 25, N′-(2,3,4-trihydroxybenzylidene)-2-((1Z)-1-(4-(methylsulfinyl)benzylidene)-5-fluoro-2-methyl-1H-inden-3-yl)acetohydrazide]
[1]
  Scavenging Effect: 30.06 ± 3.30%
other
  melting point: 195 to 197 °C
